From US20090048301A1 (IMCLONE SYSTEMS INCORPORATED, priority 2003, published 2009) come the findings set out here.

The subject of assay [1] is A431, human epidermoid carcinoma cells. Nature of the assay: Cell cycle analysis (FACS), mitotic arrest in G2/M. The class given is cell-based. As to conditions: read-out: FACS Assay: concentration required to achieve inhibition in FACS assay. As for the experimental part:
The cell cycle analysis was performed as follows. Cancer cells (A431, human epidennoid carcinoma cells) were maintained in culture in D-MEM media with 10% FBS and 1 mg/ml glutamate. Prior to experiment, cells were plated onto 6-well plates for a final density of 500,000 cells/well at the time of treatment. Cells were treated with the compounds of the invention at a concentration of about 0.01 to 1 μM final concentrations (final 0.1% DMSO) for 24 hours, then trypsinized, collected, rinsed in PBS (phosphate buffered saline), and fixed in 70% cold ethanol overnight at 4° C. The cells were then rinsed with PBS, resuspended in PBS with 0.2% Tween, RNAse was added (final 1 μg/ml), cells were incubated at 37° C. for 15 min, followed by addition of Propidium Iodide (final 50 μg/ml), and a 30 minute incubation at room temperature. DNA ploidy was analyzed using flow cytometers (Epics Excel, Beckman-Coulter, or Guava PCA-96, Guava Technologies) and mitotic arrest characterized by massive accumulation of cells in the G2/M phase of cell cycle.
Cancer cells (A431, human epidermoid cells) were maintained in culture in D-MEM media with 10% FBS and 1 mg/ml glutamate. Prior to experiment, cells are plated onto 6-well plates for a final density of 500,000 cells/well at the time of treatment. Cells were treated with compounds at 0.01-1 μM final concentrations (final […] DMS 0) for 24 hours, then trypsinized, collected, rinsed in PBS (phosphate buffered saline), and fixed in 70% cold ethanol overnight at 4° C. Cells were then rinsed with PBS, resuspended in PBS with 0.2% Tween, RNAse was added (final 1 μg/ml), cells were incubated at 37° C. for 15 min, followed by addition of Propidium Iodide (final 50 μg/ml), and a 30 minute incubation at room temperature. DNA ploidy was analyzed using cell sorters (Epics Excel, Beckman-Coulter, or Guava PCA-96, Guava Technologies) and mitotic arrest characterized by massive accumulation of cells in the G2/M phase of cell cycle.
In general terms: Flow cytometry measures light scatter and fluorescence of single cells or particles in a stream.

Assay [2] concerns bovine tubulin. Nature of the assay: In vitro tubulin polymerization assay (turbidity at 340 nm). The class given is biochemical. Conditions: 10 μM compound, 30 minute data point, vs 1% DMSO control. Put shortly:
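Bovine tubulin (97%, <3% MAPs) at 3 mg/ml final in G-PEM pH 7 with 1 mM GTP and 5% glycerol, added cold to compound wells at 37° C (1% DMSO final). A340 read each minute for 30 min; percent inhibition from 30-min point versus DMSO control.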

Where “and” joins values, the source holds several entries; their conditions need not be identical. Identical values can stand only once. Like-named read-outs stand apart in the source and are kept apart here.

`c1cncc(CNc2ncccc2-c2nnc(Nc3ccc4c(c3)OCCO4)o2)c1` [Compound 162, {3-[5-(2,3-Dihydro-benzo[1,4]dioxin-6-ylamino)-[1,3,4]oxadiazol-2-yl]-pyridin-2-yl}-pyridin-3-ylmethyl-amine]: the minimal effective concentration in assay [1] (Homo sapiens, A-431, 24 h) was found to be 0.01 µM. The “Tubulin Assay: percent inhibition at 10 μM based on 30 minute data” value (from here on “Tubulin Assay: percent inhibition”) in assay [2] was determined as 86%.
The corresponding values for `c1coc(CNc2ncccc2-c2nnc(Nc3ccc4c(c3)OCO4)o2)c1` [Compound 163, {3-[5-(Benzo[1,3]dioxol-5-ylamino)-[1,3,4]oxadiazol-2-yl]-pyridin-2-yl}-furan-2-ylmethyl-amine] are 1 µM and 90%.
In the case of `c1coc(CNc2ncccc2-c2nnc(Nc3ccc4c(c3)OCCO4)o2)c1` [Compound 164, {3-[5-(2,3-Dihydro-benzo[1,4]dioxin-6-ylamino)-[1,3,4]oxadiazol-2-yl]-pyridin-2-yl}-furan-2-ylmethyl-amine], in assay [1] (24 hours), the minimal effective concentration amounted to 0.1 µM. In assay [2], the “Tubulin Assay: percent inhibition” value amounted to 73%.
In the case of `COc1ccc(CNc2ncccc2-c2nnc(Nc3ccc4c(c3)OCCO4)o2)cc1OC` [Compound 165, {3-[5-(2,3-Dihydro-benzo[1,4]dioxin-6-ylamino)-[1,3,4]oxadiazol-2-yl]-pyridin-2-yl}-(3,4-dimethoxy-benzyl)-amine], the minimal effective concentration in assay [1] (Homo sapiens, A-431, 24 h) was 0.1 µM. In assay [2], the “Tubulin Assay: percent inhibition” value came out at 86%.
The corresponding values for `COc1ccc(CNc2ncccc2-c2nnc(Nc3ccc(OC)c(OC)c3)o2)cc1OC` [Compound 166, (3,4-Dimethoxy-benzyl)-{3-[5-(3,4-dimethoxy-phenylamino)-[1,3,4]oxadiazol-2-yl]-pyridin-2-yl}-amine] are 1 µM and 53%.
The corresponding values for `Fc1cccc(CNc2ncccc2-c2nnc(Nc3ccc4c(c3)OCCO4)o2)c1` [Compound 168, {3-[5-(2,3-Dihydro-benzo[1,4]dioxin-6-ylamino)-[1,3,4]oxadiazol-2-yl]-pyridin-2-yl}-(3-fluoro-benzyl)-amine] are 0.1 µM and 95%.
Taken in the same sequence, the figures for `Fc1ccc(CNc2ncccc2-c2nnc(Nc3ccc4c(c3)OCCO4)o2)cc1` [Compound 169, {3-[5-(2,3-Dihydro-benzo[1,4]dioxin-6-ylamino)-[1,3,4]oxadiazol-2-yl]-pyridin-2-yl}-(4-fluoro-benzyl)-amine] were 0.1 µM and 82%.
On to `c1cnc(N2CCOCC2)c(-c2nnc(Nc3ccc4c(c3)OCCO4)o2)c1` [Compound 170, (2,3-Dihydro-benzo[1,4]dioxin-6-yl)-[5-(2-morpholin-4-yl-pyridin-3-yl)-[1,3,4]oxadiazol-2-yl]-amine], for which the minimal effective concentration in assay [1] (Homo sapiens, A-431, 24 h) was 0.1 µM. Also, the “Tubulin Assay: percent inhibition” value in assay [2] amounted to 55%.
On to `Fc1ccc(CNc2ncccc2-c2nnc(Nc3ccc4c(c3)OCO4)o2)cc1` [Compound 172, {3-[5-(Benzo[1,3]dioxol-5-ylamino)-[1,3,4]oxadiazol-2-yl]-pyridin-2-yl}-(4-fluoro-benzyl)-amine], for which the minimal effective concentration in assay [1] (Homo sapiens, A-431, 24 h) turned out to be 0.1 µM. For the same molecule, the “Tubulin Assay: percent inhibition” value in assay [2] was 95% and 87%.
Turning to `c1cnc(NCC2CCCO2)c(-c2nnc(Nc3ccc4c(c3)OCCO4)o2)c1` (stereo not shown) [Compound 175, {3-[5-(2,3-Dihydro-benzo[1,4]dioxin-6-ylamino)-[1,3,4]oxadiazol-2-yl]-pyridin-2-yl}-(tetrahydro-furan-2-ylmethyl)-amine], the minimal effective concentration in assay [1] (Homo sapiens, A-431, 24 h) came out at 0.1 µM. For the same molecule, the “Tubulin Assay: percent inhibition” value in assay [2] is reported as 90%.
The corresponding values for `c1cnc(NCc2ccc3c(c2)OCO3)c(-c2nnc(Nc3ccc4c(c3)OCCO4)o2)c1` [Compound 195, Benzo[1,3]dioxol-5-ylmethyl-{3-[5-(2,3-dihydro-benzo[1,4]dioxin-6-ylamino)-[1,3,4]oxadiazol-2-yl]-pyridin-2-yl}-amine] are 0.01 µM and 73%.
